Assay results as given in US11135320B2, “Radioligands for pretargeted pet imaging and methods of their therapeutic use” (priority 2015, dated 2021).
Several values for one entry are separate records, joined by “and”; a condition that tells them apart may be missing. Identical values can stand only once.

Legend:
[1] = Stability of ^64Cu-labeled tetrazines in human serum at 37° C.; type: in vitro ADME
Protocol: (§1) Next, the aqueous and serum stabilities were determined via incubation at 37° C. (Tables 2-3). […] For example, after a 4 h incubation, 77.8±3.5% and 81.2±3.7% of ^64Cu-Tz-PEG7-NOTA and ^64Cu-Tz-SarAr, respectively, remained intact. Importantly, the release of ^64Cu^2+ from the chelators was not observed in any of the trials. Despite the rates of decomposition, the speed of the IEDDA reaction was faster than short blood half-lives of these small molecules; therefore, the radioligands remained functional in vivo.
(§2) ^64Cu-Tz-PEG7-NOTA and ^64Cu-Tz-SarAr (1000 μCi) were incubated on an agitating thermomixer (300 rpm) at 37° C. in 500 μL of either PBS (pH 7.4) or human serum. At each prescribed time-point, 100 μL of the solution was removed and placed into a 1.7 mL microcentrifuge tube. For the PBS samples, the compound was injected directly onto the HPLC and analyzed using a gradient of 5:95 CH3CN:H2O (both with 0.1% TFA) to 95:5 CH3CN:H2O over 15 min. For the serum samples, 100 μL cold CH3CN was added to the serum, and the resultant mixture was vortexed and centrifuged at 10,000 rpm for 10 min. After this, the clear supernatant was removed, moved to a new 1.7 mL microcentrifuge tube, and centrifuged again at 10,000 rpm for 10 min. The clear supernatant from this second spin was then injected into the HPLC and analyzed using a gradient of 5:95 CH3CN:H2O (both with 0.1% TFA) to 95:5 CH3CN:H2O over 15 min. The residual protein from the centrifuge spins was checked for radioactivity, and only minimal residual activity remained (less than 1% of the starting ^64Cu for each ^64Cu-Tz-PEG7-NOTA and ^64Cu-Tz-SarAr). The fraction of intact ^64Cu-Tz-PEG7-NOTA or ^64Cu-Tz-SarAr was determined by integrating the peak corresponding to the compound (tR=9.7 and 8.7 minutes, respectively) and dividing by the integral over the whole HPLC run. Both the injection loop and column were monitored to detect the presence of residual activity. All experiments were performed in triplicate.

[2] = Partition coefficient (log D), 1-octanol / PBS; type: physicochemical; conditions: 1-octanol / PBS (pH 7.4)
Protocol: Once the precursors were made, the tetrazine constructs were then radiolabeled via incubation with [^64Cu]—CuCl2 for 10 minutes at room temperature in 200 mM NH4OAc, pH 5.0 and purified via reverse-phase C18 HPLC (tR=8.7 min for ^64Cu-Tz-SarAr and 9.7 min for ^64Cu-Tz-PEG7NOTA; FIGS. 6-9). In both cases, the identity of the radiolabeled product was confirmed via co-injection of unlabeled ^natCu-Tz-SarAr and ^natCu-Tz-PEG7-NOTA standards. Ultimately, ^64Cu-Tz-PEG7NOTA was prepared in greater than 99% radionuclidic purity, 78±6% decay-corrected isolated yield, and a specific activity of 323±37 mCi/μmol (n=6). Similarly, ^64Cu-Tz-SarAr was synthesized in greater than 99% radionuclidic purity, 79±7% decay-corrected isolated yield, and a specific activity of 310±36 mCi/μmol (n=6). The ^64Cu-Tz-NOTA radioligand was synthesized, radiolabeled, and purified as previously reported by Zeflis et al. J. Nucl. Med. 2013, 54, 1389-1396, which is hereby incorporated by reference in its entirety. In order to probe the influence of the structural changes on solubility, the partition coefficients of the various radioligands were determined using PBS (pH 7.4) and 1-octanol (Table 1). […] For example, the replacement of NOTA with SarAr rendered ^64Cu-Tz-SarAr (log D=−2.08±0.06) more hydrophobic than ^64Cu-Tz-NOTA (log D=−2.54±0.1).
^64Cu-Tz-PEG7-NOTA, ^64Cu-Tz-NOTA, or ^64Cu-Tz-SarAr (1 μCi) was added to a mixture of 3 mL PBS (pH 7.4) and 3 mL 1-octanol. The resulting mixture was then vortexed thoroughly for 10 minutes and subsequently centrifuged at 1,000 rpm for 10 min. 1 mL of each layer (PBS and 1-octanol) was then collected, and the amount of radioactivity in each sample was counted on a gamma counter calibrated for ^64Cu. The partition coefficient (log D) was calculated using the formula: Log D=log10[(countsoctanol)/(countsPBS] All experiments were performed in triplicate. Reaction of ^64Cu-Tz Radioligands with huA33-TCO

[3] = Stability of ^64Cu-labeled tetrazines in PBS (pH 7.4) at 37° C.; type: physicochemical; conditions: PBS pH 7.4, 37° C.
Protocol: as §1, §2

[4] = PET imaging with ^64Cu-labeled tetrazine radioligands in healthy mice; type: in vivo, athymic nude mice
Protocol: All PET imaging experiments were performed on an Inveon PET/CT scanner (Siemens Healthcare Global). Healthy female athymic nude mice (n=4 per radioligand) were administered ^64Cu-Tz-NOTA, ^64Cu-Tz-PEG7-NOTA, or ^64Cu-Tz-SarAr (300-350 μCi in 200 μL 0.9% sterile saline) via intravenous tail vein injection (t=0). Approximately 5 minutes prior to the PET images, mice were anesthetized by inhalation of 2% isoflurane (Baxter Healthcare, Deerfield, Ill.)/oxygen gas mixture and placed on the scanner bed; anesthesia was maintained using 1% isoflurane/gas mixture. Static scans were recorded at various time points after injection with a minimum of 30 million coincident events (10-30 min total scan time). An energy window of 350-700 keV and a coincidence timing window of 6 ns were used. Data were sorted into 2-dimensional histograms by Fourier re-binning, and the images were reconstructed using a two-dimensional ordered subset expectation maximization (2DOSEM) algorithm (16 subsets, 4 iterations) into a 128×128×159 (0.78×0.78×0.80 mm) matrix. The image data was normalized to correct for non-uniformity of response of the PET, dead-time count losses, positron branching ratio, and physical decay to the time of injection but no attenuation, scatter, or partial-volume averaging correction was applied. Activity concentrations (percentage of dose per gram of tissue [% ID/g]) and maximum intensity projections were determined by conversion of the counting rates from the reconstructed images. All of the resulting PET images were analyzed using ASIPro VM™ software.

Row | SMILES | % Intact (Serum) ([1]; 2 h) | Log D [2] | % Intact (PBS) ([3]; 2 h) | excretion pathway (PET imaging) [4] | % Intact (Serum) ([1]; 4 h) | % Intact (Serum) ([1]; 8 h) | % Intact (PBS) ([3]; 4 h) | % Intact (PBS) ([3]; 8 h)
1 | O=C([O-])CN1CCN(CC(=O)[O-])CC(Cc2ccc(NC(=O)CCCC(=O)NCc3ccc(-c4nncnn4)cc3)cc2)N(CC(=O)[O-])CC1.[64Cu+2] (centres unmarked) [^64Cu-Tz-NOTA] | 85.4 +/− 6.6% | −2.54±0.1 and −2.54 +/− 0.10 | 91.6 +/− 1.9% | eliminated somewhat sluggishly through the gastrointestinal pathway |  |  |  | 
2 | O=C(O)CN1CCN(CC(=O)O)CC(Cc2ccc(NC(=S)NCCOCCOCCOCCOCCOCCOCCOCCNC(=O)CCCC(=O)NCc3ccc(-c4nncnn4)cc3)cc2)N(CC(=O)O)CC1.[64Cu] (centres unmarked) [^64Cu-Tz-PEG7-NOTA] | 84.7 +/− 4.8% and 84.7 ± 4.8% | −2.44±0.08 and −2.44 +/− 0.08 | 87.0±1.3% and 87.0 +/− 1.3% | excretion through both the intestines and the kidneys | 77.8±3.5% | 64.0 ± 6.5% | 83.2±4.6% | 76.2 ± 2.6%
3 | NC12CNCCNCC(NCc3ccc(CNC(=O)CCCC(=O)NCc4ccc(-c5nncnn5)cc4)cc3)(CNCCNC1)CNCCNC2.[64Cu+2] [^64Cu-Tz-SarAr] | 92.0 +/− 2.1% and 92.0 ± 2.1% | −2.08 +/− 0.06 | 94.7±0.6% and 94.7 +/− 0.6% | cleared quickly and cleanly through the urinary tract | 81.2±3.7% | 67.7 ± 4.3% | 93.3±0.5% | 89.7 ± 2.3%
